Assays:
[1] = target: T1, human DDX3 (ATPase activity) (Homo sapiens, UniProt O00571); test: Human DDX3 ATPase activity assay (luciferase-based luminescence); format: biochemical; settings: DDX3 ATPase activity; read-out: Ki (μM), apparent equilibrium dissociation constant for the inhibitor to the target enzyme DDX3
T1 construct: made in house; host or cells: E. coli
Protocol: ATPase activity was tested with a luciferase-based luminescence assay (Easylite-Kinase, Perkin Elmer) on 96 wells microtiter plates. Briefly, recombinant purified human DDX3 (50-100 ng) was incubated in a 15 μL total reaction volume with reaction buffer (25 mM TrisHCl pH 7.5, 5 mM MgCl2), in the presence of increasing amounts of ATP and/or different combinations of ATP and the inhibitor to be tested. Reference curves in the absence of inhibitor (giving the 100% of enzymatic activity) and in the absence of enzyme (giving the baseline), were also included in each experiment. Reading was performed with a Microbeta Trilux (Perkin Elmer) luminometer, according to the manufacturer's protocol.
ATPase reactions were performed as described, in the presence of increasing amounts of inhibitor and variable ATP concentrations. Variations of the initial velocities of the reaction as a function of ATP concentrations in the absence or presence of 4 were analyzed with the equation: […]
Variation of the % inhibition as a function of compound FE15 at different ATP concentrations were fitted to the equation for cooperative binding: […]
where Vmax is the apparent maximal rate of the reaction in the absence of the inhibitor, [I] is the variable inhibitor concentration, n is the cooperativity index and Ki(app) is the apparent inhibition constant. Comparatively, fitting was done with the same Eq. (2) where n was kept fixed at the value of 1 (non-cooperativity hypothesis). F test was used to compare the two fittings and p value was calculated.
Human recombinant DDX3 was cloned, expressed and purified as described (Franca et al. Proteins 2007, 67, 1128-37).
The anti-DDX3 activity of the compounds of the invention was evaluated by in vitro ATPase activity assay using the recombinant human DDX3 protein produced in E. coli. The potency of inhibition (Ki) for each molecule was calculated, representing the concentration of the inhibitor able to reduce the DDX3 ATPase activity by 50%

T1 sequence (O00571 whole entry): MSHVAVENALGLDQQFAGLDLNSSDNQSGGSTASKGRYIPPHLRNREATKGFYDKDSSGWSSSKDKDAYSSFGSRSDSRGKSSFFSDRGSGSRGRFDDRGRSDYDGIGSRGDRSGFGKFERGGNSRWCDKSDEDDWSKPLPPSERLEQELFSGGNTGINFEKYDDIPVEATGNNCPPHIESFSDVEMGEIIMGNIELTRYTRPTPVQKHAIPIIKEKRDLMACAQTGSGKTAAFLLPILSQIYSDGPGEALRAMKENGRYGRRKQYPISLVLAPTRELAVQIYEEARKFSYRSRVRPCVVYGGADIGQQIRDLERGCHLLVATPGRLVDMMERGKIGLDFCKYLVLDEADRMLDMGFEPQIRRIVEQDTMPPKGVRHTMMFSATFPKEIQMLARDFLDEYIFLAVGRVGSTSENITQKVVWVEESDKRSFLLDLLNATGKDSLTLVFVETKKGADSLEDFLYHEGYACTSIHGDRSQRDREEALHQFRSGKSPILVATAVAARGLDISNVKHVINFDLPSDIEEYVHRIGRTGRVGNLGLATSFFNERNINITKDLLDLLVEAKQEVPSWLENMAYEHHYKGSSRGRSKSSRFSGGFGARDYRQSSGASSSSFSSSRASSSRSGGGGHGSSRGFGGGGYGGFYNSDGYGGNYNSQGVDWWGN

| melting point | Ki [1] | Compound |
| --- | --- | --- |
| 102 to 104 °C | – | O=C1/C(=C/c2cccc(Br)c2)SC(=S)N1CCc1ccccc1 [Compound 3a, (Z)-5-(3-bromobenzylidene)-3-phenethyl-2-thioxothiazolidin-4-one] |
| 112 to 113 °C | – | O=C1/C(=C/c2cccc(Br)c2)SC(=S)N1Cc1ccccc1 [Compound 3b, (Z)-5-(3-bromobenzylidene)-3-benzyl-2-thioxothiazolidin-4-one] |
| 159 to 161 °C | – | C#CN1C(=O)/C(=C/c2cccc(Br)c2)SC1=S [Compound 3c, (Z)-5-(3-bromobenzylidene)-3-ethynyl-2-thioxothiazolidin-4-one] |
| 124 to 126 °C | – | COC(CN1C(=O)/C(=C/c2cccc(Br)c2)SC1=S)OC [Compound 3d, (Z)-5-(3-bromobenzylidene)-3-(2,2-dimethoxyethyl)-2-thioxothiazolidin-4-one] |
| 113 to 115 °C | – | CCCCN1C(=O)/C(=C/c2cccc(Br)c2)SC1=S [Compound 3e, (Z)-5-(3-bromobenzylidene)-3-butyl-2-thioxothiazolidin-4-one] |
| 122 to 125 °C | – | COc1cccc(/C=C2\SC(=S)N(CCc3ccccc3)C2=O)c1 [Compound 3f, (Z)-5-(3-methoxybenzylidene)-3-phenethyl-2-thioxothiazolidin-4-one] |
| 150 to 152 °C | – | O=C1/C(=C/c2ccco2)SC(=S)N1CCc1ccccc1 [Compound 3g, (Z)-5-((furan-2-yl)methylene)-3-phenethyl-2-thioxothiazolidin-4-one] |
| 138 to 140 °C | – | O=C1/C(=C/c2cccnc2)SC(=S)N1CCc1ccccc1 [Compound 3h, (Z)-3-phenethyl-5-((pyridin-3-yl)methylene)-2-thioxothiazolidin-4-one] |
| 174 to 176 °C | – | O=C1/C(=C/c2ccc3ccccc3c2)SC(=S)N1CCc1ccccc1 [Compound 3i, (Z)-5-((naphthalen-3-yl)methylene)-3-phenethyl-2-thioxothiazolidin-4-one] |
| – | 4.2 µM | O=C(NCCN1C(=O)/C(=C/c2cccc(Br)c2)SC1=S)c1ccccc1O [Compound 3j, N-(2-((Z)-5-(3-Bromobenzylidene)-4-oxo-2-thioxothiazolidin-3-yl)ethyl)-2-hydroxybenzamide] |
| – | 4.3 µM | O=C(NCCN1C(=O)/C(=C/c2cccc(F)c2)SC1=S)c1ccccc1O [Compound 3k, N-(2-((Z)-5-(3-Fluorobenzylidene)-4-oxo-2-thioxothiazolidin-3-yl)ethyl)-2-hydroxy-benzamide] |
| – | 28 µM | O=C(CCN1C(=O)C/C(=C\c2cccc(Br)c2)C1=O)Nc1ccccc1O [Compound 6b, 3-((E)-3-(3-bromobenzylidene)-2,5-dioxopyrrolidin-1-yl)-N-(2-hydroxyphenyl)propanamide] |
| 220 to 220.4 °C | 86 µM | Fc1ccc(Nc2nc(N/N=C/c3cccc4ccccc34)nc(N3CCOCC3)n2)cc1 [Compound 11a, (E)-N-(4-fluorophenyl)-4-morpholino-6-(2-(naphthalen-1-ylmethylene)hydrazinyl)-1,3,5-triazin-2-amine] |
| 225 to 226 °C | 8.5 µM | Fc1ccc(Nc2nc(N/N=C/c3ccc4ccccc4c3)nc(N3CCOCC3)n2)cc1 [Compound 11b, (E)-N-(4-fluorophenyl)-4-morpholino-6-(2-(naphthalen-2-ylmethylene)hydrazinyl)-1,3,5-triazin-2-amine] |
| 155.5 to 156 °C | 2.6 µM | Fc1ccc(Nc2nc(N/N=C/c3c(F)cccc3F)nc(N3CCOCC3)n2)cc1 [Compound 11c, (E)-4-(2-(2,6-difluorobenzylidene)hydrazinyl)-N-(4-fluorophenyl)-6-morpholino-1,3,5-triazin-2-amine] |
| 144 to 144.5 °C | 2.9 µM | O=C1Nc2ccccc2/C1=N/Nc1nc(NCc2cccc(Cl)c2)nc(N2CCOCC2)n1 [Compound 14f, (Z)-3-(2-(4-(3-Chlorobenzylamino)-6-morpholino-1,3,5-triazin-2-yl)hydrazono)indolin-2-one] |
| 163.5 to 164 °C | 62 µM | Oc1ccccc1/C=N/Nc1nc(NCc2cccc(Cl)c2)nc(N2CCOCC2)n1 [Compound 15j, (E)-2-((2-(4-(3-chlorobenzylamino)-6-morpholino-1,3,5-triazin-2-yl)hydrazono)methyl)phenol] |
| – | 9 µM | OCCc1cc(Nc2ccc(F)cc2)nc(N/N=C/c2ccccc2O)n1 [Compound 22, 2-((2-(4-(4-Fluorophenylamino)-6-(2-hydroxyethyl)pyrimidin-2-yl)hydrazono)methyl)phenol] |
| 235 to 237 °C | 0.5 µM | O=C(CCN1C(=O)/C(=C/c2cc(F)cc(F)c2)SC1=S)Nc1ccccc1O [Compound 35c, 3-((Z)-5-(3,5-Difluorobenzylidene)-4-oxo-2-thioxothiazolidin-3-yl)-N-(2-hydroxyphenyl) propanamide] |
| 208 to 209 °C | 97 µM | Cc1cccc(/C=C2\SC(=S)N(CCC(=O)Nc3ccccc3O)C2=O)c1 [Compound 35d, 3-((Z)-5-(3-Methylbenzylidene)-4-oxo-2-thioxothiazolidin-3-yl)-N-(2-hydroxyphenyl) propanamide] |

| melting point | Ki [1] | Compound |
| --- | --- | --- |
| 200 to 202 °C | 10 µM | COc1cccc(/C=C2\SC(=S)N(CCC(=O)Nc3ccccc3O)C2=O)c1 [Compound 35e, 3-((Z)-5-(3-Methoxybenzylidene)-4-oxo-2-thioxothiazolidin-3-yl)-N-(2-hydroxyphenyl) propanamide] |
| 240 to 241 °C | 1 µM | O=C(CCN1C(=O)/C(=C/c2ccc3c(c2)OCO3)SC1=S)Nc1ccccc1O [Compound 35f, 3-((Z)-5-((Benzo[d][1,3]dioxol-5-yl)methylene)-4-oxo-2-thioxothiazolidin-3-yl)-N-(2-hydroxyphenyl)propanamide] |
| 204 to 206 °C | 8.7 µM | O=C(CCN1C(=O)/C(=C/c2cccc(Br)c2)SC1=S)Nc1ccccc1[N+](=O)[O-] [Compound 35g, 3-((Z)-5-(3-Bromobenzylidene)-4-oxo-2-thioxothiazolidin-3-yl)-N-(2-nitrophenyl)propanamide] |
| 207 to 208 °C | 7.6 µM | O=C(CCN1C(=O)/C(=C/c2cccc(F)c2)SC1=S)Nc1ccccc1[N+](=O)[O-] [Compound 35h, 3-((Z)-5-(3-Fluorobenzylidene)-4-oxo-2-thioxothiazolidin-3-yl)-N-(2-nitrophenyl)propanamide] |
| – | 3.2 µM | Clc1ccccc1-c1ccc(/C=N/Nc2nc(Nc3ccccc3)nc(N3CCOCC3)n2)o1 [FE-56AA] |
| – | 2 µM | O=C1Nc2ccccc2/C1=N\Nc1nc(Nc2cccc(Cl)c2)nc(N2CCOCC2)n1 [FE-56AD] |
| – | 3.2 µM | Cc1ccc(Nc2nc(N/N=C3/C(=O)Nc4ccccc43)nc(N3CCOCC3)n2)cc1Cl [FE-56AH] |
| – | 2.2 µM | CC(=O)Nc1ccc(/C(C)=N/Nc2nc(Nc3ccccc3)nc(N3CCOCC3)n2)cc1 [FE-56AI] |
| – | 1.6 µM | Cc1ccc(Nc2nc(N/N=C/c3ccccc3O)nc(N3CCOCC3)n2)cc1Cl [FE-56AM] |
| – | 0.5 µM | CC(=O)Nc1ccc(/C(C)=N/Nc2nc(NCc3ccccc3)nc(N3CCOCC3)n2)cc1 [FE-56AN] |
| – | 33 µM | Oc1ccc(/C=N/Nc2nc(Nc3ccccc3)nc(Nc3ccccc3)n2)c(O)c1 [FE-56I] |
| – | 18 µM | Clc1ccc(/C=N/Nc2nc(Nc3ccccc3)nc(Nc3ccccc3)n2)cc1Cl [FE-56O] |
| – | 6.3 µM | O=C(Oc1cccc(/C=N/Nc2nc(Nc3ccccc3)nc(N3CCOCC3)n2)c1)c1ccco1 [FE-56U] |
| – | 3.6 µM | O=[N+]([O-])c1ccc(Cl)c(-c2ccc(/C=N/Nc3nc(Nc4ccc(F)cc4)nc(N4CCOCC4)n3)o2)c1 [FE-56V] |
| – | 1.9 µM | COc1ccc(Nc2nc(NCc3ccco3)nc(N/N=C/c3ccc(-c4ccccc4[N+](=O)[O-])o3)n2)cc1 [FE-56Z] |
| – | 0.9 µM | COc1cc(/C=C2\SC(=S)N(CCC(=O)N3CCCc4ccccc43)C2=O)cc(OC)c1OC [FE-69] |
| – | 0.4 µM | O=C(CCN1C(=O)/C(=C/c2ccc3c(c2)OCO3)SC1=S)Nc1ccccc1C(=O)O [FE-70] |
| – | 0.1 µM | COc1cc(/C=C2\SC(=S)N(CCC(=O)Nc3ccccc3O)C2=O)cc(OC)c1OC [FE-74] |
| – | 2 µM | COc1ccc(/C=C2\SC(=S)N(CCC(=O)Nc3ccccc3C(=O)O)C2=O)cc1 [FE-77] |
